Target: Urease (Canavalia ensiformis, UniProt P07374)
Assay: Urease Inhibition Assay
Conditions: pH 6.8; 30 °C
Protocol: To understand the binding modes of the compounds given in Table 1, all ligands were docked into the binding site of Urease enzyme. The top ranked conformations of each ligand were saved in a separate database for further evaluation. The docking results well correlated with the experimental results. The reaction mixtures, comprising 25 uL of enzyme (jack bean urease, Sigma aldrich) solution and 55 uL of buffers containing 100 mM urea, were incubated with 5 uL of the test compounds (0.5 mM concentration) at 30 °C for 15 min in 96-well plates. For the kinetics assessment the urea concentrations were changed from 2 to 24 mM. Urease activity was determined by measuring ammonia production using the indophenol method as described by Weatherburn. Briefly, 45 uL of phenol reagent (1% w/v phenol and 0.005% w/v sodium nitroprusside (Sigma Aldrich)) and, 70 uL of alkali reagent (0.5% w/v NaOH (Sigma Aldrich) and 0.1% active chloride NaOCl (Sigma Aldrich)) were added to each well. The increasing absorbance at 630 nm was measured after 50 min, using a microplate reader (Molecular Device, USA). All reactions were performed in triplicate in a final volume of 200 uL. The results (change in absorbance per min) were processed by using SoftMax-Pro software (molecular Device, USA). The entire assays were performed at pH 6.8.

Chain of Urease (P07374 whole entry): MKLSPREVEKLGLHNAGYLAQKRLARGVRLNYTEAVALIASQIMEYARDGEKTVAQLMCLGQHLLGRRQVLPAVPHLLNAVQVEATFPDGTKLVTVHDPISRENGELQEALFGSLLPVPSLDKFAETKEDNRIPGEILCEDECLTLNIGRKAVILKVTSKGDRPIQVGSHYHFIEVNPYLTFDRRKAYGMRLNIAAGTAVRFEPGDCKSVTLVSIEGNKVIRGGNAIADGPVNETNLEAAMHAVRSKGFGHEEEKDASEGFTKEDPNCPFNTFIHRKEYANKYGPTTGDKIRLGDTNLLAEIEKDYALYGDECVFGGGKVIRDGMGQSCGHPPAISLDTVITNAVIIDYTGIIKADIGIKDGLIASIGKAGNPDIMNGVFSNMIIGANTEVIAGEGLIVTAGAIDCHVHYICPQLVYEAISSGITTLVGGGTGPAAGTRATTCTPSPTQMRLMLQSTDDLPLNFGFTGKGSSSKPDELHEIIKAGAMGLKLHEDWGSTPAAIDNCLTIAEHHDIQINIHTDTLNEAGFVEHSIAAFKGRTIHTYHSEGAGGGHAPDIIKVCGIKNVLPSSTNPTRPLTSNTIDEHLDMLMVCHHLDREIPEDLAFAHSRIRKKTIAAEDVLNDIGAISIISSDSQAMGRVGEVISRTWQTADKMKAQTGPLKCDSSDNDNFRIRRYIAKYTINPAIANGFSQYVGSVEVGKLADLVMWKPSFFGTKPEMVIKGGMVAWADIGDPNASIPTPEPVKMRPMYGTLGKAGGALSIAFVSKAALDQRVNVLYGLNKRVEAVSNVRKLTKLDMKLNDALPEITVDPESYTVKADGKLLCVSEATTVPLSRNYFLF

Compound	IC50 [µM]
O=C(NNC(=S)Nc1ccccc1Br)c1ccc(-c2nc3ccccc3s2)cc1 [2-(4-(benzo[d]thiazol-2-yl)benzoyl)-N-(2-bromophenyl)hydrazinecarbothioamide (4)]	6.9
O=C(NNC(=S)Nc1ccccc1Cl)c1ccc(-c2nc3ccccc3s2)cc1 [2-(4-(benzo[d]thiazol-2-yl)benzoyl)-N-(2-chlorophenyl)hydrazinecarbothioamide (3)]	4.3
O=C(NNC(=S)Nc1ccccc1F)c1ccc(-c2nc3ccccc3s2)cc1 [2-(4-(benzo[d]thiazol-2-yl)benzoyl)-N-(2-fluorophenyl)hydrazinecarbothioamide (2)]	3.4
O=C(NNC(=S)Nc1cccc(F)c1)c1ccc(-c2nc3ccccc3s2)cc1 [2-(4-(benzo[d]thiazol-2-yl)benzoyl)-N-(3-fluorophenyl)hydrazinecarbothioamide (12)]	6.3
COc1cccc(NC(=S)NNC(=O)c2ccc(-c3nc4ccccc4s3)cc2)c1 [2-(4-(benzo[d]thiazol-2-yl)benzoyl)-N-(3-methoxyphenyl)hydrazinecarbothioamide (15)]	28.1
O=C(NNC(=S)Nc1ccc(C(F)(F)F)cc1)c1ccc(-c2nc3ccccc3s2)cc1 [2-(4-(benzo[d]thiazol-2-yl)benzoyl)-N-(4-(trifluoromethyl)phenyl)hydrazine-carbothioamide (17)]	1.6
O=C(NNC(=S)Nc1ccc(Br)cc1)c1ccc(-c2nc3ccccc3s2)cc1 [2-(4-(benzo[d]thiazol-2-yl)benzoyl)-N-(4-bromophenyl)hydrazinecarbothioamide (7)]	13.7
O=C(NNC(=S)Nc1ccc(Cl)cc1)c1ccc(-c2nc3ccccc3s2)cc1 [2-(4-(benzo[d]thiazol-2-yl)benzoyl)-N-(4-chlorophenyl)hydrazinecarbothioamide (8)]	5.5
O=C(NNC(=S)Nc1ccc(F)cc1)c1ccc(-c2nc3ccccc3s2)cc1 [2-(4-(benzo[d]thiazol-2-yl)benzoyl)-N-(4-fluorophenyl)hydrazinecarbothioamide (6)]	2.5
COc1ccc(NC(=S)NNC(=O)c2ccc(-c3nc4ccccc4s3)cc2)cc1 [2-(4-(benzo[d]thiazol-2-yl)benzoyl)-N-(4-methoxyphenyl)hydrazinecarbothioamide (9)]	13.6
O=C(NNC(=S)Nc1ccc([N+](=O)[O-])cc1)c1ccc(-c2nc3ccccc3s2)cc1 [2-(4-(benzo[d]thiazol-2-yl)benzoyl)-N-(4-nitrophenyl)hydrazinecarbothioamide (10)]	1.4
Cc1cccc(NC(=S)NNC(=O)c2ccc(-c3nc4ccccc4s3)cc2)c1 [2-(4-(benzo[d]thiazol-2-yl)benzoyl)-N-(m-tolyl)hydrazinecarbothioamide (11)]	18.7
Cc1ccccc1NC(=S)NNC(=O)c1ccc(-c2nc3ccccc3s2)cc1 [2-(4-(benzo[d]thiazol-2-yl)benzoyl)-N-(o-tolyl)hydrazinecarbothioamide (1)]	7.4
Cc1ccc(NC(=S)NNC(=O)c2ccc(-c3nc4ccccc4s3)cc2)cc1 [2-(4-(benzo[d]thiazol-2-yl)benzoyl)-N-(p-tolyl)hydrazinecarbothioamide (5)]	10.4
O=C(NNC(=S)Nc1ccccc1)c1ccc(-c2nc3ccccc3s2)cc1 [2-(4-(benzo[d]thiazol-2-yl)benzoyl)-N-phenylhydrazinecarbothioamide (20)]	19.1
O=C(NNC(=S)Nc1cccc(Br)c1)c1ccc(-c2nc3ccccc3s2)cc1 [4-(1,3-benzothiazol-2-yl)-N-{[(3-bromophenyl)carbamothioyl]amino}benzamide (13)]	11.4
O=C(NNC(=S)Nc1cccc([N+](=O)[O-])c1)c1ccc(-c2nc3ccccc3s2)cc1 [4-(1,3-benzothiazol-2-yl)-N-{[(3-nitrophenyl)carbamothioyl]amino}benzamide (14)]	5.7
O=C(NNC(=S)NC12CC3CC(CC(C3)C1)C2)c1ccc(-c2nc3ccccc3s2)cc1 [N-(adamantan-1-yl)-2-(4-(benzo[d]thiazol-2-yl)benzoyl)hydrazinecarbothioamide (19)]	34.4
